Experimental data: article PMC12654037, “Norditerpene Natural Products from Subterranean Fungi with Anti-Parasitic Activity” (Microorganisms, 2025)

Tests used:
[1] = system: HuF fibroblast cell line; conditions: cited from earlier work
[2] = system: C. parvum oocysts; assay: C. parvum oocyst excystation assay; type: cell-based, Cryptosporidium parvum; conditions: 7.5 µM, 1-hour incubation
Procedure: C. parvum excystation and invasion assays: Oocyst excystation rates in the presence of compounds were determined as previously described. The C. parvum invasion inhibition assays were conducted in two formats. In the first format, described previously, HCT-8 cells were seeded on glass slides (CELLTREAT Scientific Product, Pepperell, MA, USA) and allowed to grow to confluence. Oidiolactone A was added to the cells for one hour. TrtE and DMSO were run in parallel as positive and negative controls, respectively. The cell monolayers were then infected with 1.2 × 10^6 wild-type C. parvum oocysts. After 3 h of incubation at 37 °C, the slides were washed five times with 111 mM D-galactose, fixed with 4% paraformaldehyde, and permeabilized with 0.25% Triton-X. C. parvum sporozoites were detected with rabbit anti-gp40 [39] and Alexa Fluor 594 goat anti-rabbit antibodies. The HCT-8 cell nuclei were stained with 0.09 mM Hoechst. Slides were coded to enable unbiased counting, and sporozoites from at least 10 randomly selected fields were counted in each sample at 100× magnification (Zeiss® Axioscope 5). The percentage of invaded parasites was determined using the following equation: % Invaded parasites = [parasitescompound/parasitesDMSO] × 100. This experiment was run in duplicate with two biological replicates.

[3] = system: TgRH-Luc:GFP; assay: T. gondii -static versus -cidal washout assay; type: cell-based, Toxoplasma gondii; conditions: for treatment time after which T. gondii did not recover (killing time): at EC90 15 µM, compound washed out, read 48 h post-infection
Procedure: T. gondii growth inhibition assays: The T. gondii inhibition assay was described previously. Briefly, HFF cells were seeded onto white-sided, clear-bottom 96 well plates, grown to confluence, and then 5000 TgRH-Luc:GFP parasites were added to each well. At 24 hpi, compounds or DMSO were added. The growth of the parasites was determined by relative luminescence at 48 hpi using Promega Bright-Glo (Promega, Madison, WI, USA) substrate. Plates were read, and the percent inhibition of parasite growth was calculated as described above. Determination of -static versus -cidal activity was conducted as indicated above, with parasite growth quantified after 48 h of infection. Each sample was run in triplicate, and each experiment was repeated three times.

[4] = system: T. gondii intracellular stages; assay: T. gondii immunofluorescence assay; type: cell-based, Toxoplasma gondii; conditions: 7.5 µM, 24 h
Procedure: For T. gondii IFAs, confluent HFF cells in 4-well chamber cell culture glass slides were infected with either 5 × 10^4 or 1 × 10^5 parasites/mL. At 6 hpi, 7.5 µM oidiolactone A or DMSO control was diluted in culture medium and added to the slides for 24 h. The slides were then fixed with 4% paraformaldehyde and permeabilized with 0.25% Triton-X. The slides were blocked with 3% goat serum in 0.25% Triton-X. The parasites were visualized with anti-T. gondii SAG1 and Alexa Fluor 594 goat anti-rabbit antibody. The slides were mounted, and images were acquired as described above and processed with NIS Elements GA3 (general analysis 3).

[5] = system: P. falciparum 3D7; assay: Plasmodium falciparum growth inhibition assay (SYBR Green I), 3D7; conditions: 3D7, 72 h, read-out: EC50 3D7(M)
Procedure: Plasmodium falciparum growth inhibition assay: Antiplasmodial EC50 results were determined using a fluorescence-based SYBR Green I assay performed using asynchronous cultures [30, 35]. […] Plates were subsequently frozen at −80 °C to facilitate lysis. […] Relative fluorescence units (RFUs) were normalized based on chloroquine-treated and no treatment controls. Serial dilutions of compounds were prepared in RPMI with final assay conditions of ≤0.2% DMSO. Each assay was conducted in triplicate with three biological replicates.

[6] = Serum biochemical analysis of infected and treated IFNγ −/− mice; type: in vivo, C57BL/6 IFNγ −/− mice
Procedure: Inhibition of C. parvum infection in IFN-gamma knock-out (IFNγ −/−) mice: Twelve female C57BL/6 IFNγ −/− mice (4 weeks old) from the Jackson Laboratory were housed in a controlled environment with a 12 h light/dark cycle and access to food and water ad libitum. Cp-NLuc oocysts were isolated from infected mouse feces and purified using a sodium chloride density gradient. Mice were inoculated via oral gavage with a suspension of 10^4 oocysts in 50 µL sterile PBS. On days 5 and 6 post-infection, mice were treated with 4 mg/kg of oidiolactone A or DMSO vehicle control every 12 h for a total of four doses (6 mice per treatment group). Fecal samples were collected daily and stored at −20 °C until analysis. Feces were homogenized in a lysis buffer solution, centrifuged, and the supernatant was incubated with Nano-Glo® substrate in a 96-well plate, as previously described. Luminescence was measured in a microplate reader immediately after substrate addition. Oocyst shedding, measured in RLUs/gram of feces, was plotted over time, and the area under the curve was determined for each mouse. Mice were sacrificed 14 days post-infection, and serum was collected for biochemical analysis. Biochemical analyses were performed using the Beckman Coulter AU480 automated analyzer (Beckman Coulter, Brea, CA, USA) at the Clinical Pathology Laboratory, Veterinary Medical Center, University of Minnesota.

[7] = system: C. parvum asexual and sexual stages; assay: C. parvum asexual/sexual stage assay (4 h treatment windows); type: cell-based, Cryptosporidium parvum
Procedure: To determine -static versus -cidal activity, the infection assay was conducted as described, but infected cells were treated with compounds for 30 min up to 24 h. The compounds were removed after the designated times, and infection was quantified at 72 h post-infection. To determine the activity of the compounds against asexual and sexual stages of the parasite, compounds were added for 4 h windows at times corresponding to asexual or sexual development. Parasite proliferation was then determined at 72 h post-infection. For all assays, each sample was run in triplicate, and three biological replicates were performed.

Q: Which “cytotoxicity against human fibroblast” value [1] does the source give for `CO[C@H]1OC(=O)C=C2[C@@]13O[C@@H]3[C@H]1OC(=O)[C@@]3(C)CCC[C@@]2(C)[C@@H]13` [compound 1, oidiolactone A] here?
A: no cytotoxicity observed

Q: What about the “TC50 HuF (sub-confluent)” value ([1]; sub-confluent, ref Rusman et al. 2020 [25]) of the same compound?
A: > 30 µM

Q: And the “effect on oocyst excystation” value [2]?
A: no effect

Q: And the EC90 ([3]; Toxoplasma gondii)?
A: 15 µM

Q: And the “treatment time after which T. gondii did not recover (killing time)” value ([3]; listed as Oidiolactone A)?
A: ≤ 24 h

Q: What about the “treatment time after which T. gondii did not recover (killing time)” value ([3]; listed as oidiolactone A) of the same compound?
A: 8 to 12 h

Q: And the “abundance of treated T. gondii parasites by IFA” value [4]?
A: much lower abundances

Q: What about the EC50 [5] of the same compound?
A: 3.33e-06 ± 6.4e-07 M

Q: And the “signs of acute toxicity (liver, renal, metabolic, cardiac functions, protein status, electrolytes vs control)” value ([6]; 4 mg/kg x 4 doses, serum day 14)?
A: no statistically significant differences

Q: And the “LIH (sum of lipemia, icterus, and hemolysis scores per mouse)” value ([6]; serum, mean ± SD)?
A: 1.5 ± 0.71

Q: And the ALP ([6]; serum, mean ± SD of two mice)?
A: 182.00 ± 15.56 U/L

Q: And the ALT ([6]; serum, mean ± SD of two mice)?
A: 37.50 ± 6.36 U/L

Q: What about the AST ([6]; serum, mean ± SD of two mice) of the same compound?
A: 229.50 ± 31.82 U/L

Q: And the Alb ([6]; serum, mean ± SD of two mice)?
A: 3.30 ± 0.14 g/dL

Q: And the Amy ([6]; serum, mean ± SD of two mice)?
A: 456.00 ± 80.61 U/L

Q: And the “An Gap (calc.)” value ([6]; serum, mean ± SD of two mice)?
A: 27.00 ± 1.41

Q: What about the BUN ([6]; serum, mean ± SD of two mice) of the same compound?
A: 21.50 ± 4.95 mg/dL

Q: And the CK ([6]; serum, mean ± SD of two mice)?
A: 1618.00 ± 376.18 U/L

Q: And the Ca ([6]; serum, mean ± SD of two mice)?
A: 10.55 ± 0.07 mg/dL

Q: What about the Chol ([6]; serum, mean ± SD of two mice) of the same compound?
A: 92.50 ± 7.78 mg/dL

Q: What about the Creat ([6]; serum, mean ± SD of two mice) of the same compound?
A: 0.00 ± 0.00 mg/dL

Q: And the GGT ([6]; serum, mean ± SD of two mice)?
A: 0.00 ± 0.00 U/L

Q: And the “Glob (calc.)” value ([6]; serum, mean ± SD of two mice)?
A: 1.55 ± 0.07 g/dL

Q: What about the Gluc ([6]; serum, mean ± SD of two mice) of the same compound?
A: 280.00 ± 15.56 mg/dL

Q: What about the HCO3 ([6]; serum, mean ± SD of two mice) of the same compound?
A: 14.85 ± 1.48 mmol/L

Q: And the K ([6]; serum, mean ± SD of two mice)?
A: 5.15 ± 0.07 mmol/L

Q: What about the Mg ([6]; serum, mean ± SD of two mice) of the same compound?
A: 2.75 ± 0.07 mg/dL

Q: And the Na ([6]; serum, mean ± SD of two mice)?
A: 149.50 ± 0.71 mmol/L

Q: What about the “Osmol (calc.)” value ([6]; serum, mean ± SD of two mice) of the same compound?
A: 310.00 ± 1.41

Q: What about the Phos ([6]; serum, mean ± SD of two mice) of the same compound?
A: 10.25 ± 0.35 mg/dL

Q: What about the “T. Bili” value ([6]; serum, mean ± SD of two mice) of the same compound?
A: 0.10 ± 0.00 mg/dL

Q: What about the TP ([6]; serum, mean ± SD of two mice) of the same compound?
A: 4.85 ± 0.21 g/dL

Q: And the “activity against gamete stages” value ([7]; 7.5 μM, 4 h intervals)?
A: no activity

Q: And the inhibition at 7.5 µM ([7]; Cryptosporidium parvum, 4 h intervals post-infection, read 72 h, read-out: inhibition of parasites in asexual stage and transition to sexual stages)?
A: 20 to 75%
